Measurements: patent US8389523B2, “Substituted quinoxaline and an agrochemical composition thereof” (Kumiai Chemical Industry Co., Ltd., priority 2007, dated 2013)

Key:
Type in all cases: in vivo
Design in all cases: scale not given here
[1] = test system: Echinochloa oryzicola Vasing; test: Herbicidal effects in paddy field soil treatment (Test Example 1); details: for Herbicidal effects index, Echinochloa oryzicola Vasing: paddy field soil treatment, 1000 g of the active ingredient per hectare, wettable powder added dropwise on water surface, 21st day after treatment
Method in brief: (§1)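 Sow seeds in puddled, leveled paddy soil; waterlog to 3 cm depth. On the following day apply water-diluted wettable powder onto the water surface (1000 g a.i./ha). Grow in greenhouse and assess herbicidal effect at day 21.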

[2] = test system: Scirpus juncoides Roxb. var. ohwianus. T. Koyama; test: as above; details: for Herbicidal effects index, Scirpus juncoides Roxb. var. ohwianus. T. Koyama: paddy field soil treatment, 1000 g of the active ingredient per hectare, wettable powder added dropwise on water surface, 21st day after treatment
Method in brief: as §1

[3] = test system: Monochoria vaginalis (Burm. f.) Presl var. plantaginea (Roxb.) Solms-Laub.; test: as above; details: for Herbicidal effects index, Monochoria vaginalis (Burm. f.) Presl var. plantaginea (Roxb.) Solms-Laub.: paddy field soil treatment, 1000 g of the active ingredient per hectare, wettable powder added dropwise on water surface, 21st day after treatment
Method in brief: as §1

Amaranthus viridis L. [4] = test: Herbicidal effects in upland field soil treatment (Test Example 2); details: 1000 g active ingredient per hectare, 21st day after treatment, criteria of Table 138
Method in brief: (§2)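 Upland soil, seeds sown and covered → diluted WP sprayed uniformly onto soil surface (1000 L/ha; 1000 g a.i./ha) → greenhouse → effect scored day 21.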

[5] = test system: Abutilon theophrasti medicus; test: as above; details: 1000 g active ingredient per hectare, 21st day after treatment, criteria of Table 138
Method in brief: as §2

[6] = test system: Echinochloa crus-galli (L.) P. Beauv. var. crus-galli; test: Herbicidal effects in upland field foliar treatment (Test Example 3); details: criteria of Table 138; for herbicidal effects on Echinochloa crus-galli (L.) P. Beauv. var. crus-galli: 1000 g of the active ingredient per hectare, 14th day after the treatment, wettable powder; for herbicidal effect (index) on Echinochloa crus-galli (L.) P. Beauv. var. crus-galli: 1000 g active ingredient per hectare, 14th day after treatment
Method in brief: (§3)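 Seeds sown in upland soil, grown 2 weeks in greenhouse; whole-plant overhead spray of diluted wettable powder at 1000 g a.i./ha (1000 L/ha); kept in greenhouse; effects graded by criteria at 14 d.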

Amaranthus viridis L. [7] = test: as above; details: criteria of Table 138; for herbicidal effects on Amaranthus viridis L.: 1000 g of the active ingredient per hectare, 14th day after the treatment, wettable powder; for herbicidal effect (index) on Amaranthus viridis L.: 1000 g active ingredient per hectare, 14th day after treatment
Method in brief: as §3

[8] = test system: Abutilon theophrasti medicus; test: as above; details: criteria of Table 138; for herbicidal effects on Abutilon theophrasti medicus: 1000 g of the active ingredient per hectare, 14th day after the treatment, wettable powder; for herbicidal effect (index) on Abutilon theophrasti medicus: 1000 g active ingredient per hectare, 14th day after treatment
Method in brief: as §3

[9] = paddy field soil treatment (Test Example 1), criteria of Table 138

SMILES	Herbicidal effects index, Echinochloa oryzicola Vasing [1]	Herbicidal effects index, Scirpus juncoides Roxb. var. ohwianus. T. Koyama [2]	Herbicidal effects index, Monochoria vaginalis (Burm. f.) Presl var. plantaginea (Roxb.) Solms-Laub. [3]	herbicidal effect (index) on Amaranthus viridis L. (Amaranthus viridis L. [4])	herbicidal effect (index) on Abutilon theophrasti medicus [5]	herbicidal effects on Echinochloa crus-galli (L.) P. Beauv. var. crus-galli [6]	herbicidal effects on Amaranthus viridis L. (Amaranthus viridis L. [7])	herbicidal effects on Abutilon theophrasti medicus [8]	herbicidal effect (index) on Echinochloa crus-galli (L.) P. Beauv. var. crus-galli [6]	herbicidal effect (index) on Amaranthus viridis L. (Amaranthus viridis L. [7])	herbicidal effect (index) on Abutilon theophrasti medicus [8]	herbicidal effect (index) on Echinochloa oryzicola Vasing [1, 9]	herbicidal effect (index) on Scirpus juncoides Roxb. var. ohwianus. T. Koyama [2, 9]	herbicidal effect (index) on Monochoria vaginalis (Burm. f.) Presl var. plantaginea (Roxb.) Solms-Laub. [3, 9]
CCCCn1c(=O)c(C(=O)C2=C(O)CCCC2=O)nc2cccnc21 [III-15]	5	5	5	5	5	5	5	5	–	–	–	–	–	–
Cc1ccccc1-n1c(=O)c(C(=O)C2=C(O)CCCC2=O)nc2cccnc21 [IV-19]	5	5	5	5	5	5	5	5	–	–	–	–	–	–
CC(=O)Cn1c(=O)c(C(=O)C2=C(O)CCCC2=O)nc2ccccc21 [Compound I-94]	5	5	5	4	5	–	–	–	5	5	5	–	–	–
O=C1CCCC(O)=C1C(=O)c1nc2ccccc2n(C2=NOCC2)c1=O [I-131]	5	5	5	5	5	–	–	–	5	5	5	–	–	–
O=C1CCCC(O)=C1C(=O)c1nc2ccccc2n(-c2ccccc2F)c1=O [II-6]	5	5	5	5	5	–	–	–	5	5	5	–	–	–
O=C1CCCC(O)=C1C(=O)c1nc2cccnc2n(-c2cccc(Br)c2)c1=O [IV-17]	5	5	5	5	5	5	5	5	–	–	–	–	–	–
O=C1CCCC(O)=C1C(=O)c1nc2ccccc2n(-c2ccc(Br)cn2)c1=O [I-271]	5	5	5	5	5	–	–	–	5	5	5	–	–	–
COc1ccc(-n2c(=O)c(C(=O)C3=C(O)C(C)(C)CCC3=O)nc3ccccc32)cc1 [II-63]	5	5	5	5	5	5	5	4	–	–	–	–	–	–
COc1ccccc1-n1c(=O)c(C(=O)C2=C(O)CCCC2=O)nc2ccccc21 [II-52]	5	5	5	5	5	5	5	5	–	–	–	–	–	–
O=C1CCCC(O)=C1C(=O)c1nc2ccccc2n(-c2ccon2)c1=O [I-144]	5	5	5	5	5	–	–	–	5	5	5	–	–	–
O=C1CCCC(O)=C1C(=O)c1nc2cccnc2n(-c2ccc(Br)cc2)c1=O [IV-18]	5	5	5	5	5	5	5	5	–	–	–	–	–	–
O=C1CCCC(O)=C1C(=O)c1nc2ccccc2n(-c2ccccc2)c1=O [II-1]	5	5	5	5	5	–	–	–	5	5	5	–	–	–
O=C1CCCC(O)=C1C(=O)c1nc2ccccc2n(COCC(F)(F)F)c1=O [I-59]	5	5	5	5	5	–	–	–	5	5	5	–	–	–
O=C1CCCC(O)=C1C(=O)c1cnccn1 [comparative compound A, reference compound]	–	–	–	0	1	0	1	2	–	–	–	2	0	0
N#Cc1ccc(-n2c(=O)c(C(=O)C3=C(O)CCCC3=O)nc3ccccc32)cc1 [II-137]	5	5	5	5	5	5	5	5	–	–	–	–	–	–
